Article PMC12014842, “An ^211At-labeled alpha-melanocyte stimulating hormone peptide analog for targeted alpha therapy of metastatic melanoma” (European Journal of Nuclear Medicine and Molecular Imaging, 2025)
Where two headings read alike, the source gives them in different places. Each block holds one molecule with its values, some of them ahead of it. Positions of bridges follow the written chain, without caps; N, C: chain ends. Non-standard residues stand in square brackets, D forms with d. Residues, ends and D or L forms follow the SMILES beside them. *: point of attachment. DOTA = O=C(O)CN1CCN(CC(=O)O)CCN(CC(=O)*)CCN(CC(=O)O)CC1; X1 = O=C(Cn1cc(COCC(CO)(CO)CI)nn1)*; Nle = CCCC[C@H](N)C(=O)O

How the values were obtained:
[1] = molecular target: T1, MC1R (B16F10 melanoma cells) (Mus musculus, UniProt Q01727); test: Receptor binding assay: competitive inhibition of [^125I]I-Tyr^2-NDP-MSH bound to B16F10 melanoma cells; conditions: competition with [^125I]I-Tyr^2-NDP-MSH, 37 °C, 1 h, brackets = 95% confidence interval
T1 construct: endogenous in cells; host or cells: B16F10 melanoma cells (Cell Resource Center for Biomedical Research, Tohoku University)
Method: B16F10 cells were obtained from the Cell Resource Center for Biomedical Research (Institute of Development, Aging and Cancer Tohoku University). B16F10 cells were cultivated in RPMI 1640 medium (Nacalai Tesque) supplemented with 10% fetal bovine serum (Thermo Scientific) in a humidified atmosphere containing 5% carbon dioxide at 37 °C. B16F10 cells (5 × 10^5 cells/well) were seeded in a 24-well poly-D-lysine coated plate (Corning) overnight. After the growth medium was removed, a reaction buffer containing 4.8 mg/mL HEPES, 100 U/mL penicillin, 1 mg/mL streptomycin and 2 mg/mL bovine serum albumin was added. Approximately 30,000 counts per minute of [^125I]I-Tyr^2-NDP-MSH and 0.5 pM to 5 µM of the peptides (NpG-GGN1a–NpG-GGN4a and In-DOTA-GGNle-CycMSHhex) were added to each well. The reaction mixture was incubated at 37 °C for 1 h. After incubation, the binding medium was removed, and the cells were rinsed twice with ice-cold phosphate-buffered saline (PBS). The cells were harvested using 0.25% trypsin solution, and the radioactivity was determined using an auto-well gamma counter. Ki values were calculated using GraphPad Prism 8.4.3 (GraphPad Software).

[2] = Log D7.4 measurements (1-octanol / phosphate buffer); type: physicochemical; conditions: 1-octanol / 25 mM phosphate buffer pH 7.4; mean ± SD
Method: This experiment was performed according to a previously reported procedure with slight modifications. In brief, an aliquot of radiolabeled GGNle-CycMSHhex analogs (50 kBq/5 µL) was mixed with equal amounts (1.5 mL) of 1-octanol and 25 mM phosphate buffer (pH 7.4). The mixture was vortexed for 1 min and then allowed to stand for 1 min. After repeating the procedure five times, the mixture was centrifuged at 1,500 g for 10 min. Aliquots of 0.5 mL were taken from each phase and their radioactivity was measured with an auto-well γ counter (Wizard 3, PerkinElmer). The partition coefficient was determined by calculating the ratio of counts per minute in the 1-octanol phase to that in the buffer phase and expressed as a common logarithm. The results represent the mean ± SD for each compound.

[3] = Biodistribution in tumor-bearing mice; type: in vivo; conditions: C57BL/6, mouse, iv, total radioactivity, 3 h after i.v. injection, Suppl. Table 1, mean ± SD, n = 4; for tissue uptake dose at 3 h: 7.4 kBq
Method: The animal experiments were conducted according to a protocol reviewed and approved by the Chiba University Animal Care Committee (Permit No. 4–183). Five-week-old C57BL/6 mice were subcutaneously xenografted in their right hind legs by injecting B16F10 cells (1.0 × 10^6 cells) suspended in Matrigel (BD Biosciences). When the tumor diameter achieved approximately 10 mm, the mice were subjected to biodistribution studies. Groups of four mice were sacrificed at each postinjection time point. A solution of each radiohalogenated GGNle-CycMSHhex analog or [^111In]In-DOTA-GGNle-CycMSHhex (7.4 kBq/100 µL) was injected into the tumor-bearing mice via the tail vein, and the mice were sacrificed at 3 h postinjection. A solution of [^125I]NpG-GGN4b (7.4 kBq) or [^211At]NpG-GGN4c (40 or 100 kBq) was also injected, and the mice were sacrificed at […] postinjection. Injected radioactivity of [^211At]NpG-GGN4c was 40 kBq for 1 and 3 h postinjection groups and 100 kBq for 24 postinjection group. Blocking studies were performed by co-injection of NDP-MSH (10 µg per mouse) simultaneously with [^125I]NpG-GGN4b (7.4 kBq) or [^211At]NpG-GGN4c (40 kBq), and the mice were sacrificed at 3 h postinjection. The organs of interest were removed, weighed, and radioactivity was estimated using an auto-well gamma counter.

T1 sequence (Q01727 whole entry): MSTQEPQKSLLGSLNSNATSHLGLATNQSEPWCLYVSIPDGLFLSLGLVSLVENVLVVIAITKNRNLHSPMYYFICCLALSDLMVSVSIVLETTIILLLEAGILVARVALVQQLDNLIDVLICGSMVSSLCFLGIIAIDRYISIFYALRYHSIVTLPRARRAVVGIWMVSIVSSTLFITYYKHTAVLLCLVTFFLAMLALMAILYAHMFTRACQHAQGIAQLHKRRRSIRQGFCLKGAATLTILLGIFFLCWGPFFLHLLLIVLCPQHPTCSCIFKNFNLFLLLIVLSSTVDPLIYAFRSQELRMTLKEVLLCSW

Compound: CCCC[C@H](NC(=O)CNC(=O)CNC(=O)CN1CCN(CC(=O)O)CCN(CC(=O)O)CCN(CC(=O)O)CC1)C(=O)N[C@H]1CC(=O)NCCCC[C@@H](C(N)=O)NC(=O)[C@H](Cc2c[nH]c3ccccc23)NC(=O)[C@H](CCCNC(=N)N)NC(=O)[C@@H](Cc2ccccc2)NC(=O)[C@H](Cc2c[nH]cn2)NC1=O [[^111In]In-DOTA-GGNle-CycMSHhex, metal not drawn] ({DOTA}-GG[Nle]DH[dF]RWK-NH2; lactam 4-9)
- logD [2]: -3.45 ± 0.17
- tissue uptake dose at 3 h ([3]; intestine, read-out: Biodistribution of radioactivity, Intestine): 0.6 ± 0.15 %ID
- tissue uptake dose at 3 h ([3]; stomach, read-out: Biodistribution of radioactivity, Stomach): 0.2 ± 0.04 %ID
- tissue uptake dose at 3 h ([3]; thyroid, read-out: Biodistribution of radioactivity, Thyroid): 0.01 %ID
- tissue uptake at 3 h ([3]; tumor, 7.4 kBq/100 µL): 16.5 ± 1.89 %ID/g

Compound: CCCC[C@H](NC(=O)CNC(=O)CNC(=O)Cn1cc(COCC(CO)(CO)CI)nn1)C(=O)N[C@H]1CC(=O)NCCCC[C@@H](C(N)=O)NC(=O)[C@H](Cc2c[nH]c3ccccc23)NC(=O)[C@H](CCCNC(=N)N)NC(=O)[C@@H](Cc2ccccc2)NC(=O)[C@H](Cc2c[nH]cn2)NC1=O [NpG-GGN1a] (X1-GG[Nle]DH[dF]RWK-NH2; lactam 4-9)
- Ki [1]: 2.81 nM

Compound: CCCC[C@H](NC(=O)CNC(=O)CNC(=O)[C@@H](CCC(=O)O)NC(=O)Cn1cc(COCC(CO)(CO)CI)nn1)C(=O)N[C@H]1CC(=O)NCCCC[C@@H](C(N)=O)NC(=O)[C@H](Cc2c[nH]c3ccccc23)NC(=O)[C@H](CCCNC(=N)N)NC(=O)[C@@H](Cc2ccccc2)NC(=O)[C@H](Cc2c[nH]cn2)NC1=O [NpG-GGN2a] (X1-[dE]GG[Nle]DH[dF]RWK-NH2; lactam 5-10)
- Ki [1]: 3.24 nM

Results, then the molecule that gave them:

- Ki [1]: 14.9 nM
Compound: CCCC[C@H](NC(=O)CNC(=O)CNC(=O)[C@@H](CCC(=O)O)NC(=O)[C@@H](CCC(=O)O)NC(=O)Cn1cc(COCC(CO)(CO)CI)nn1)C(=O)N[C@H]1CC(=O)NCCCC[C@@H](C(N)=O)NC(=O)[C@H](Cc2c[nH]c3ccccc23)NC(=O)[C@H](CCCNC(=N)N)NC(=O)[C@@H](Cc2ccccc2)NC(=O)[C@H](Cc2c[nH]cn2)NC1=O [NpG-GGN3a] (X1-[dE][dE]GG[Nle]DH[dF]RWK-NH2; lactam 6-11)

- Ki [1]: 1.37 nM
Compound: CCCC[C@H](NC(=O)CNC(=O)CNC(=O)[C@@H](CCCNC(=N)N)NC(=O)[C@@H](CCC(=O)O)NC(=O)Cn1cc(COCC(CO)(CO)CI)nn1)C(=O)N[C@H]1CC(=O)NCCCC[C@@H](C(N)=O)NC(=O)[C@H](Cc2c[nH]c3ccccc23)NC(=O)[C@H](CCCNC(=N)N)NC(=O)[C@@H](Cc2ccccc2)NC(=O)[C@H](Cc2c[nH]cn2)NC1=O [NpG-GGN4a] (X1-[dE][dR]GG[Nle]DH[dF]RWK-NH2; lactam 6-11)
